# Assay results from PubChem BioAssay AID1259407 (Chemical Carcinogenesis Research Information System (CCRIS), 2018).
# Active and inactive are the calls of the source. No rule for the calls is given here.
# Test system: CCRIS mutagenicity, Ames/micronucleus/aberration tests
# Assay: CCRIS mutagenicity studies
# [1] = Test System: AMES SALMONELLA TYPHIMURIUM, Strain/Indicator: TA98, Metabolic Activation: NONE, Method: PREINCUBATION
# [2] = Test System: AMES SALMONELLA TYPHIMURIUM, Strain/Indicator: TA100, Metabolic Activation: NONE, Method: PREINCUBATION
# [3] = Test System: AMES SALMONELLA TYPHIMURIUM, Strain/Indicator: TA1535, Metabolic Activation: NONE, Method: PREINCUBATION
# [4] = Test System: AMES SALMONELLA TYPHIMURIUM, Strain/Indicator: TA1537, Metabolic Activation: NONE, Method: PREINCUBATION
# [5] = Test System: AMES SALMONELLA TYPHIMURIUM, Strain/Indicator: TA98, Metabolic Activation: NONE, Method: STANDARD PLATE
# [6] = Test System: AMES SALMONELLA TYPHIMURIUM, Strain/Indicator: TA98, Metabolic Activation: RAT, LIVER, S-9, AROCLOR 1254, Method: STANDARD PLATE
# [7] = Test System: AMES SALMONELLA TYPHIMURIUM, Strain/Indicator: TA100, Metabolic Activation: NONE, Method: STANDARD PLATE
# [8] = Test System: AMES SALMONELLA TYPHIMURIUM, Strain/Indicator: TA100, Metabolic Activation: RAT, LIVER, S-9, AROCLOR 1254, Method: STANDARD PLATE
# [9] = Test System: AMES SALMONELLA TYPHIMURIUM, Strain/Indicator: TA98, Metabolic Activation: HAMSTER, LIVER, S-9, AROCLOR 1254 (10%), Method: PREINCUBATION
# [10] = Test System: AMES SALMONELLA TYPHIMURIUM, Strain/Indicator: TA98, Metabolic Activation: RAT, LIVER, S-9, AROCLOR 1254 (10%), Method: PREINCUBATION
# [11] = Test System: AMES SALMONELLA TYPHIMURIUM, Strain/Indicator: TA100, Metabolic Activation: RAT, LIVER, S-9, AROCLOR 1254 (10%), Method: PREINCUBATION
# [12] = Test System: AMES SALMONELLA TYPHIMURIUM, Strain/Indicator: TA1535, Metabolic Activation: HAMSTER, LIVER, S-9, AROCLOR 1254 (10%), Method: PREINCUBATION
# [13] = Test System: AMES SALMONELLA TYPHIMURIUM, Strain/Indicator: TA1535, Metabolic Activation: RAT, LIVER, S-9, AROCLOR 1254 (10%), Method: PREINCUBATION
# [14] = Test System: AMES SALMONELLA TYPHIMURIUM, Strain/Indicator: TA1537, Metabolic Activation: HAMSTER, LIVER, S-9, AROCLOR 1254 (10%), Method: PREINCUBATION
# [15] = Test System: AMES SALMONELLA TYPHIMURIUM, Strain/Indicator: TA1537, Metabolic Activation: RAT, LIVER, S-9, AROCLOR 1254 (10%), Method: PREINCUBATION
compound,measurement,setting,value
CC1CCc2c(N3CCC(O)CC3)c(F)cc3c(=O)c(C(=O)O)cn1c23 (stereo not given),mutagenic call,[1],inactive; negative
same,mutagenic call,"Test System: AMES SALMONELLA TYPHIMURIUM, Strain/Indicator: TA98, Metabolic Activation: RAT, LIVER, S-9, NADPH, Method: PREINCUBATION",inactive; negative
same,mutagenic call,[2],inactive; negative
same,mutagenic call,"Test System: AMES SALMONELLA TYPHIMURIUM, Strain/Indicator: TA100, Metabolic Activation: RAT, LIVER, S-9, NADPH, Method: PREINCUBATION",inactive; negative
same,mutagenic call,[3],inactive; negative
same,mutagenic call,"Test System: AMES SALMONELLA TYPHIMURIUM, Strain/Indicator: TA1535, Metabolic Activation: RAT, LIVER, S-9, NADPH, Method: PREINCUBATION",inactive; negative
same,mutagenic call,[4],inactive; negative
same,mutagenic call,"Test System: AMES SALMONELLA TYPHIMURIUM, Strain/Indicator: TA1537, Metabolic Activation: RAT, LIVER, S-9, NADPH, Method: PREINCUBATION",inactive; negative
same,mutagenic call,"Test System: AMES SALMONELLA TYPHIMURIUM, Strain/Indicator: TA1538, Metabolic Activation: NONE, Method: PREINCUBATION",inactive; negative
same,mutagenic call,"Test System: AMES SALMONELLA TYPHIMURIUM, Strain/Indicator: TA1538, Metabolic Activation: RAT, LIVER, S-9, NADPH, Method: PREINCUBATION",inactive; negative
same,mutagenic call,"Test System: E. COLI, Strain/Indicator: WP2 UVRA, Metabolic Activation: RAT, LIVER, S-9, NADPH, Method: PREINCUBATION",inactive; negative
same,mutagenic call,"Test System: E.COLI, Strain/Indicator: WP2 UVRA, Metabolic Activation: NONE, Method: PREINCUBATION",inactive; negative
Oc1ccc(ON2P(Oc3ccc(O)cc3)N=P(Oc3ccc(O)cc3)(Oc3ccc(O)cc3)N(Oc3ccc(O)cc3)P2Oc2ccc(O)cc2)cc1 (stereo not given),mutagenic call,[5],inactive; negative
same,mutagenic call,[6],inactive; negative
same,mutagenic call,[7],inactive; negative
same,mutagenic call,[8],inactive; negative
[O]=[Mg],mutagenic call,"Test System: AMES SALMONELLA TYPHIMURIUM, Strain/Indicator: TA97, Metabolic Activation: NONE, Method: PREINCUBATION",inactive; negative
same,mutagenic call,"Test System: AMES SALMONELLA TYPHIMURIUM, Strain/Indicator: TA97, Metabolic Activation: S-9, Method: PREINCUBATION",inactive; negative
same,mutagenic call,[2],inactive; negative
same,mutagenic call,"Test System: AMES SALMONELLA TYPHIMURIUM, Strain/Indicator: TA100, Metabolic Activation: RAT, LIVER, S-9, Method: PREINCUBATION",inactive; negative
same,mutagenic call,"Test System: AMES SALMONELLA TYPHIMURIUM, Strain/Indicator: TA102, Metabolic Activation: NONE, Method: PREINCUBATION",inactive; negative
same,mutagenic call,"Test System: AMES SALMONELLA TYPHIMURIUM, Strain/Indicator: TA102, Metabolic Activation: S-9, Method: PREINCUBATION",inactive; negative
Nc1cc([N+](=O)[O-])ccc1O,mutagenic call,"End Point: IN VITRO CHROMOSOMAL ABERRATIONS, Test System: CHO CELLS, Metabolic Activation: NONE",active; positive; precipitation occurred at all concentrations
same,mutagenic call,"End Point: IN VITRO CHROMOSOMAL ABERRATIONS, Test System: CHO CELLS, Metabolic Activation: RAT, LIVER, S-9, AROCLOR 1254",active; positive; precipitation occurred at both concentrations
same,mutagenic call,[9],active; positive
same,mutagenic call,"Test System: AMES SALMONELLA TYPHIMURIUM, Strain/Indicator: TA98, Metabolic Activation: HAMSTER, LIVER, S-9, AROCLOR 1254, Method: PREINCUBATION",active; positive
same,mutagenic call,[1],inactive; negative
same,mutagenic call,[10],inactive; negative
same,mutagenic call,"Test System: AMES SALMONELLA TYPHIMURIUM, Strain/Indicator: TA98, Metabolic Activation: RAT, LIVER, S-9, AROCLOR 1254, Method: PREINCUBATION",inactive; negative
same,mutagenic call,[11],inactive; negative
same,mutagenic call,"Test System: AMES SALMONELLA TYPHIMURIUM, Strain/Indicator: TA100, Metabolic Activation: RAT, LIVER, S-9, AROCLOR 1254, Method: PREINCUBATION",inactive; negative
same,mutagenic call,[12],inactive; negative
same,mutagenic call,"Test System: AMES SALMONELLA TYPHIMURIUM, Strain/Indicator: TA1535, Metabolic Activation: HAMSTER, LIVER, S-9, AROCLOR 1254, Method: PREINCUBATION",inactive; negative
same,mutagenic call,[13],inactive; negative
same,mutagenic call,"Test System: AMES SALMONELLA TYPHIMURIUM, Strain/Indicator: TA1535, Metabolic Activation: RAT, LIVER, S-9, AROCLOR 1254, Method: PREINCUBATION",inactive; negative
same,mutagenic call,[14],inactive; negative
same,mutagenic call,"Test System: AMES SALMONELLA TYPHIMURIUM, Strain/Indicator: TA1537, Metabolic Activation: HAMSTER, LIVER, S-9, AROCLOR 1254, Method: PREINCUBATION",inactive; negative
same,mutagenic call,[15],inactive; negative
same,mutagenic call,"Test System: AMES SALMONELLA TYPHIMURIUM, Strain/Indicator: TA1537, Metabolic Activation: RAT, LIVER, S-9, AROCLOR 1254, Method: PREINCUBATION",inactive; negative
same,mutagenic call,"Test System: MOUSE LYMPHOMA, Strain/Indicator: L5178Y (TK+/TK-), Metabolic Activation: NONE, Method: SUSPENSION/PLATE",active; positive
NC(=O)CCC(=O)Nc1ccc(Cl)cc1,mutagenic call,[5],inactive; negative
same,mutagenic call,[6],inactive; negative
same,mutagenic call,[7],inactive; negative
same,mutagenic call,[8],inactive; negative
COC(C)(C)CC(C)=O,mutagenic call,[9],inactive; negative
same,mutagenic call,[1],inactive; negative
same,mutagenic call,[10],inactive; negative
same,mutagenic call,"Test System: AMES SALMONELLA TYPHIMURIUM, Strain/Indicator: TA100, Metabolic Activation: HAMSTER, LIVER, S-9, AROCLOR 1254 (10%), Method: PREINCUBATION",inactive; negative
same,mutagenic call,[2],inactive; negative
same,mutagenic call,[11],inactive; negative
same,mutagenic call,[12],inactive; negative
same,mutagenic call,[3],inactive; negative
same,mutagenic call,[13],inactive; negative
same,mutagenic call,[14],inactive; negative
same,mutagenic call,[4],inactive; negative
same,mutagenic call,[15],inactive; negative
CC(=O)c1cc(NC(=O)Nc2ccc(OCC(O)CNC(C)(C)C)c(C(C)=O)c2)ccc1OCC(O)CNC(C)(C)C (stereo not given),mutagenic call,[1],inactive; negative
same,mutagenic call,"Test System: AMES SALMONELLA TYPHIMURIUM, Strain/Indicator: TA98, Metabolic Activation: RAT, LIVER, S-9, PHENOBARBITAL AND 5,6-BENZOFLAVONE (10 OR 50 µL/PLATE), Method: PREINCUBATION",inactive; negative
same,mutagenic call,[2],inactive; negative
same,mutagenic call,"Test System: AMES SALMONELLA TYPHIMURIUM, Strain/Indicator: TA100, Metabolic Activation: RAT, LIVER, S-9, PHENOBARBITAL AND 5,6-BENZOFLAVONE (10 OR 50 µL/PLATE), Method: PREINCUBATION",inactive; negative
same,mutagenic call,[3],inactive; negative
same,mutagenic call,[4],inactive; negative
same,mutagenic call,"Test System: AMES SALMONELLA TYPHIMURIUM, Strain/Indicator: TA1537, Metabolic Activation: RAT, LIVER, S-9, PHENOBARBITAL AND 5,6-BENZOFLAVONE (10 OR 50 µL/PLATE), Method: PREINCUBATION",inactive; negative
same,mutagenic call,"Test System: E. COLI, Strain/Indicator: WP2 UVRA, Metabolic Activation: NONE, Method: PREINCUBATION",inactive; negative
same,mutagenic call,"Test System: E. COLI, Strain/Indicator: WP2 UVRA, Metabolic Activation: RAT, LIVER, S-9, PHENOBARBITAL AND 5,6-BENZOFLAVONE (10 OR 50 µL/PLATE), Method: PREINCUBATION",inactive; negative
